# Patent US9006439B2, “Camptothecin derivatives having anti-tumor activity” (priority 2011, dated 2015)
# Where two headings read alike, the source gives them in different places. Marks after values point to notes of the source that are not given here.
# How the values were obtained:
# [1] = system: OV-3 (ovarian cancer) cells; test: MTT in vitro cytotoxicity, OV-3; format: cell-based, human; conditions: read-out: Concentration to inhibit 50% cell growth (IC50 nM ± SD), OV-3
# Method: (§1) In vitro cytotoxicity was measured with MTT. Cell suspension was prepared using cells in good condition and seeded at 200 μl/well on a 96 well plate before culturing for 24 hours in a temperature-controlled CO2 incubator. The test drug was added at 20 μl/well and cultured for 48 hours. MTT was added to the 96 well plate at 20 ul/well and allowed to react for 4 hours in the incubator. The supernatant was removed and DMSO was added at 20 μl/well. Cytotoxicity was determined by the absorbance measured by Enzyme-linked immunosorbent assay at a wavelength of 570 nm.
# [2] = system: BX-PC3 (pancreatic cancer) cells; test: MTT in vitro cytotoxicity, BX-PC3; format: cell-based, human; conditions: read-out: Concentration to inhibit 50% cell growth (IC50 nM ± SD), BX-PC3
# Method: as §1
# U87 (glioma) cells = test: MTT in vitro cytotoxicity, U87; format: cell-based, human; conditions: read-out: Concentration to inhibit 50% cell growth (IC50 nM ± SD), U87
# Method: as §1
# [3] = system: A549 (non-small cell lung cancer) cells; test: MTT in vitro cytotoxicity, A549; format: cell-based, human; conditions: read-out: Concentration to inhibit 50% cell growth (IC50 nM ± SD), A549
# Method: as §1
# [4] = system: U87, BX-PC3, HT-29, OV-3 and A549 cell lines; test: MTT in vitro cytotoxicity, five cell lines together (mean / overall); conditions: for in vitro activity / cytotoxicity (in words): MTT, A549, HT-29, OV-3, U87, BX-PC3
# Method: as §1
# [5] = system: HT-29 (colon cancer) cells; test: MTT in vitro cytotoxicity, HT-29; format: cell-based, human; conditions: read-out: Concentration to inhibit 50% cell growth (IC50 nM ± SD), HT-29
# Method: as §1
# [6] = system: SK-OV3 human ovarian carcinoma xenograft; test: Therapeutic effect on nude mice with SK-OV3 xenograft; format: in vivo; set-up: Tumor inhibition: unit not given here; conditions: for Tumor inhibition: 16 days after treatment; for Tumor inhibition / Maximum change in weight (%): iv; for Tumor inhibition / T.S. (mm3) D 16 / T.S. (mm3) D 0: SK-OV3; for T.S. (mm3) D 16: tumor size 16 days after treatment, iv tail vein; for T.S. (mm3) D 0: tumor size at day 0 (baseline)
# Method: (§2) Methods: female nude mice were used for the experiments. Transplantation of tumors: Actively growing tumor tissues were cut into small pieces with sterilized scissors and each mouse was inoculated with 50 mg of the tumor tissue. Treatment began on days 6-10 after tumor transplantation when the weight of the tumor was around 300 mg. The nude mice were weighed and the tumor size was measured every other day. Transplanted tumors: human breast cancer (MX-1), human non-small cell lung cancer (A549), human ovarian carcinoma (SK-0V3), human colon carcinoma (HT29), human pancreatic cancer (BX-PC-3).
# [7] = system: a variety of transplanted tumors; conditions: at maximum tolerated dose
# Method: as §2
# [8] = Solubility and stability comparison; format: physicochemical
# Excerpt: (§3) CP1 had better solubility and stability than CPT2-10.
# [9] = Determination of equitoxic dose (maximum tolerated dose); format: in vivo, nude mice; conditions: q2dx4, decrease in weight of around 15%; for MTD: nude, mouse, in vivo, intravenous, read-out: Experimentally determined dosage at the same level of toxicity (maximum tolerated dose)
# Method: as §3
# Dosing regimen: once every two days, a total of four times; route of administration: intravenous injection at the tail vein. # At 16 days after treatment. […] The doses used were those that were determined experimentally to cause the same toxicity of weight decrease by 12-15%. T.S: tumor size
# [10] = system: MX-1 human breast cancer xenograft; test: Therapeutic effect on nude mouse with MX-1 xenograft; format: in vivo; conditions: for Tumor disappear: animals with tumor not detectable visually, observed for 60 days; for Tumor disappear / Maximum change in weight (%): iv; for T.S. (mm3) D 16: tumor size 16 days after treatment, iv tail vein; for T.S. (mm3) D 16 / T.S. (mm3) D 0: MX-1; for T.S. (mm3) D 0: tumor size at day 0 (baseline)
# Method: as §2
# B: Tumor disappearance: tumor could not be detected visually 60 days after the experiment
# [11] = system: intra-cerebrally transplanted U87 human glioma brain tumor; test: Therapeutic effect on intra-cerebrally transplanted U87 brain tumor; format: in vivo, mice
# Excerpt: Methods: female nude mice were used for the experiments.
# Dosing regimen: once every two days, a total of four times; route of administration: intravenous injection at the tail vein. Mice died from brain tumor after inoculation with 2×10^5 cells. #: Comparing CPT1 with irinotecan and gimatecan.
# [12] = MTT, drug cultured 48 hours, OV-3
# [13] = MTT, drug cultured 48 hours, BX-PC3
# [14] = MTT, drug cultured 48 hours, U87
# [15] = MTT, drug cultured 48 hours, A549
# [16] = read-out: Concentration to inhibit 50% cell growth, mean (average concentration), mean over U87, BX-PC3, HT-29, OV-3, A549
# [17] = MTT, drug cultured 48 hours, HT-29
# [18] = once every two days, four times
# [19] = inoculation with 2×10^5 U87 cells intra-cerebrally, iv, once every two days, four times
# [20] = SK-OV3 nude mice, once every two days, four times
# [21] = MX-1 nude mouse, once every two days, four times
Molecule,"IC50 [1, 12] [nM]","IC50 [2, 13] [nM]",IC50 (U87 (glioma) cells; [14]) [nM],"IC50 [3, 15] [nM]","IC50 [4, 16] [nM]","IC50 [5, 17] [nM]","Tumor inhibition [6, 18]","T.S. (mm3) D 16 [6, 18] [mm3]",T.S. (mm3) D 0 [6] [mm3],in vitro activity / cytotoxicity (in words) [4],"Tumor disappear [10, 18]","T.S. (mm3) D 16 [10, 18] [mm3]",T.S. (mm3) D 0 [10] [mm3],further results
9-t-butyloxyethyloxime-10-hydroxy-camptothecin [CPT2],16.1 ± 2.5,5.1 ± 2,2.9 ± 1.1,14.1 ± 1.2,9.1,7.1 ± 1.6,,,,,,,,
"CCC1(O)C(=O)OCc2c1cc1n(c2=O)Cc2cc3c(CC=NOC(C)(C)C)c(OC(=O)N4CCC(N5CCCCC5)CC4)ccc3nc2-1 (stereo not shown) [CPT1, 9-t-butyloxyethyloxime-10-[(4′-piperidinylpiperidinyl)carbonyloxy]-camptothecin]",,,,,,,80.4,358 ± 34,236 ± 34,do not have significant activities in vitro,6/6,0,356 ± 51,"Maximum change in weight (%) ([6]; mouse, in vivo): −12%; Therapeutic effect against transplanted tumors (in words) [7]: good therapeutic effect; Solubility compared with CPT2-10 [8]: better; Stability compared with CPT2-10 [8]: better; Experimentally determined dosage at the same level of toxicity (maximum tolerated dose) [9]: 55 mg/kg; Maximum change in weight (%) ([10]; mouse, in vivo): −13%; Survival time compared with irinotecan and gimatecan ([11]; P<0.05): increased significantly; Average survival time (days) [11, 19]: 26.4 ± 1.2# days"
"CCC1(O)C(=O)OCc2c1cc1n(c2=O)Cc2cc3c(CC=NOC(C)(C)C)c(F)ccc3nc2-1 (stereo not shown) [CPT3, 9-t-butyloxyethyloxime-10-fluoro-camptothecin]",10.1 ± 2.1,3.1 ± 1.5,2.1 ± 1,11.2 ± 1,7.1,9.1 ± 3.2,,,,significant cytotoxicity,,,,
"CCC1(O)C(=O)OCc2c1cc1n(c2=O)Cc2cc3c(CC=NOC(C)(C)C)c(OC(=O)C(N)Cc4ccccc4)ccc3nc2-1 (stereo not shown) [CPT4, 9-t-butyloxyethyloxime-10-phenylalanine-carbonyloxy-camptothecin]",,,,,,,,,,do not have significant activities in vitro,,,,
"CCC1(O)C(=O)OCc2c1cc1n(c2=O)Cc2cc3c(CC=NOC(C)(C)C)cccc3nc2-1 (stereo not shown) [CPT7, 9-t-butyloxyethyloxime-camptothecin]",4.1 ± 0.4,2.1 ± 1.2,1.5 ± 0.3,5.5 ± 0.8,3.3,3.1 ± 1,,,,significant cytotoxicity,,,,
CCC1(O)C(=O)OCc2c1cc1n(c2=O)Cc2cc3c(CC=NOC(C)(C)C)c(OC(C)=O)ccc3nc2-1 (stereo not shown) [CPT8],23.1 ± 3.1,7.1 ± 2.1,4.1 ± 1.7,19.3 ± 2.2,12.9,11.1 ± 1.8,,,,significant cytotoxicity,,,,
"CCC1(OC(=O)C(N)Cc2ccccc2)C(=O)OCc2c1cc1n(c2=O)Cc2cc3c(CC=NOC(C)(C)C)c(OC(=O)N4CCC(N5CCCCC5)CC4)ccc3nc2-1 (stereo not shown) [CPT9, 9-t-butyloxyethyloxime-10-[(4′-piperidinylpiperidinyl)carbonyloxy]-20-phenylalanine carbonyloxy-camptothecin]",,,,,,,,,,do not have significant activities in vitro,,,,
CC[C@@]1(O)C(=O)OCc2c1cc1n(c2=O)Cc2c-1nc1ccccc1c2/C=N/OC(C)(C)C [Gimatecan],,,,,,,68.4,578 ± 61,203 ± 33,,6/6,0,328 ± 65,"Maximum change in weight (%) [6, 20]: −12%; IC50 ([1]; Homo sapiens, 48 h): 3.1 ± 2.2 nM; IC50 ([2]; Homo sapiens, BXPC-3, 48 h): 1.5 ± 0.8 nM; IC50 (U87 (glioma) cells; Homo sapiens, U-87 MG, 48 h): 0.6 ± 0.2 nM; IC50 ([3]; Homo sapiens, A549, 48 h): 4.7 ± 0.2 nM; IC50 ([4]; Homo sapiens, read-out: Concentration to inhibit 50% cell growth, mean (average concentration), mean over U87, BX-PC3, HT-29, OV-3, A549): 2.7 nM; MTD [9]: 1 mg/kg; IC50 ([5]; Homo sapiens, HT-29, 48 h): 3.6 ± 0.3 nM; Maximum change in weight (%) [10, 21]: −13%; Average survival time [11, 19]: 23.1 ± 1.6 days"
CCc1c2c(nc3ccc(OC(=O)N4CCC(N5CCCCC5)CC4)cc13)-c1cc3c(c(=O)n1C2)COC(=O)[C@]3(O)CC [Irinotecan],,,,,,,75.3,451 ± 56,214 ± 26,,6/6,0,361 ± 54,"Maximum change in weight (%) [6, 20]: −13%; MTD [9]: 55 mg/kg; Maximum change in weight (%) [10, 21]: −12%; Average survival time [11, 19]: 22.8 ± 1.4 days"
CCc1c2c(nc3ccc(O)cc13)-c1cc3c(c(=O)n1C2)COC(=O)[C@]3(O)CC [SN38],17.1 ± 3.2,6.8 ± 2.6,3.1 ± 1.1,16.6 ± 1.9,10.5,8.7 ± 1.2,,,,,,,,
CC[C@@]1(O)C(=O)OCc2c1cc1n(c2=O)Cc2cc3c(CN(C)C)c(O)ccc3nc2-1 [Topotecan],,,,,19.7,,18.9,1478 ± 226,223 ± 43,,2/6,124 ± 12,323 ± 47,"Maximum change in weight (%) [6, 20]: −12%; IC50 ([1]; Homo sapiens, 48 h): 21.1 ± 2.6 nM; IC50 ([2]; Homo sapiens, BXPC-3, 48 h): 19.1 ± 3.7 nM; IC50 (U87 (glioma) cells; Homo sapiens, U-87 MG, 48 h): 12.5 ± 3.2 nM; IC50 ([3]; Homo sapiens, A549, 48 h): 28.5 ± 3.9 nM; MTD [9]: 12 mg/kg; IC50 ([5]; Homo sapiens, HT-29, 48 h): 17.3 ± 4.2 nM; Maximum change in weight (%) [10, 21]: −14%"
